Laboratory results reported in patent US9795625B2, “Uridine and uridine analogues for treatment of specific lung diseases, namely COPD and pulmonary fibrosis” (Universitaetsklinikum Freiburg, priority 2011, dated 2017).

Assays:
[1] = system: sephadex-induced acute lung inflammation; settings: sephadex-induced acute lung inflammation model; cited from earlier work
[2] = system: mitochondrial toxicity caused by highly active antiretroviral therapy (HAART); settings: cited from earlier work
smoke exposed mice = test: Acute cigarette smoke exposure, i.t. uridine, BAL fluid analysis; assay type: in vivo, Male C57BL/6 mice
Description: Male C57BL/6 mice were exposed to whole smoke of five cigarettes (commercial Virginia filter cigarettes: 12 mg of tar and 0.9 mg of nicotine) or room air for 20 min on three consecutive days in especially designed macrolon cages (Tecniplast, Buguggiate, Italy), as previously described (Cavarra E et al., Human SLPI inactivation after cigarette smoke exposure in a new in vivo model of pulmonary oxidative stress, Am J Physiol Lung Cell Mol Physiol. 2001 August; 281(2):L412-7, Cicko S et al., Purinergic receptor inhibition prevents the development of smoke-induced lung injury and emphysema, J Immunol. 2010 Jul. 1; 185(1):688-97). The smoke was produced by the burning of a cigarette and was introduced into the chamber with the airflow generated by a mechanical ventilator (7025 Rodent Ventilator, Ugo Basile, Biological Research Instruments, Comerio, Italy), at a rate of 250 ml/min. A second mechanical ventilator was used to provide room air for dilution (1:8) of the smoke-stream.
In some experiments, intratracheal treatment (i.t.) was performed prior to each smoke exposure: animals were anaesthetized by intraperitoneal injection of Ketamin/Xylazin and received an i.t. injection of uridine in a total volume of 80 μl (1 mM or 10 mM) or PBS which was used as vehicle. One hour after the last smoke challenge, mice were sacrificed and bronchoalveolar lavage (BAL) was performed.
BAL fluid was collected by cannulating the trachea under deep pentobarbital anesthesia and washing the lung three times with 1 ml PBS containing 0.1 mM EDTA, as previously described (Idzko M et al., Extracellular ATP triggers and maintains asthmatic airway inflammation by activating dendritic cells, Nat Med. 2007 Aug.; 13(8):913-9, Cicko S et al., Purinergic receptor inhibition prevents the development of smoke-induced lung injury and emphysema, J Immunol. 2010 Jul. 1; 185(1):688-97). Total cell numbers were counted and differential cell counts were performed on cytospin preparations after staining with Diff-Quick (Medion Diagnostics, Dudingen, Switzerland). Differential cell counts were made on >200 cells using standard morphological criteria and FACS-analysis.
After counting and washing, BAL cells were stained for 30 min with anti-MHC class II (macrophages/DC), anti-7/4 (Caltag) FITC (neutrophiles; Abd-Serotec, Düsseldorf, Germany), anti-CD3 and anti-CD19 cy-chrome (lymphocytes), and anti-CD 11c APC macrophages/DCs (eBioscience, San Diego, Calif.) in PBS containing 0.5% BSA and 0.01% sodium azide. Differential cell counts were analyzed by flow cytometry, as described previously (Idzko M et al., Extracellular ATP triggers and maintains asthmatic airway inflammation by activating dendritic cells, Nat Med. 2007 Aug.; 13(8):913-9 and Cicko S et al., Purinergic receptor inhibition prevents the development of smoke-induced lung injury and emphysema, J Immunol. 2010 Jul. 1; 185(1):688-97).
To measure ATP concentrations in BALF in mice, fresh BALF supernatants were used, according to manufacturer's instructions (ATPlite Assay, PerkinElmer, Wellesley Mass.), but without the cell lysis step to avoid any contaminating intracellular ATP, as described previously (Idzko M et al., Extracellular ATP triggers and maintains asthmatic airway inflammation by activating dendritic cells, Nat Med. 2007 Aug.; 13(8):913-9 Cicko S et al., Purinergic receptor inhibition prevents the development of smoke-induced lung injury and emphysema, J Immunol. 2010 Jul. 1; 185(1):688-97)).
(§1) Cytokine concentrations in BALF were measured using commercially available ELISA kits (R&D Systems, Minneapolis, Minn.) according to the manufacturer's recommendations.
(§2) Statistical significance of differences between samples was calculated using ANOVA, followed by Bonferroni comparison test. Difference were considered significant if p<0.05.

[3] = system: asthmatic airway inflammation; settings: OVA-alum model and HDM model in mice, local administration; cited from earlier work
[4] = system: murine model of chronic smoke exposure; test: Chronic exposure to cigarette smoke (pulmonary emphysema), lung morphometry; assay type: in vivo, male C57BL/6 mice; settings: uridine 0.6 mg/kg oral gavage 45 min prior to smoke exposure vs non-uridine treated mice (FIG. 2)
Excerpt: The methodology for chronic smoke exposure has been previously described (Cavarra E et al., Human SLPI inactivation after cigarette smoke exposure in a new in vivo model of pulmonary oxidative stress, Am J Physiol Lung Cell Mol Physiol. 2001 August; 281(2):L412-7 Cicko S et al., Purinergic receptor inhibition prevents the development of smoke-induced lung injury and emphysema, J Immunol. 2010 Jul. 1; 185(1):688-97)). Briefly, male C57BL/6 mice were exposed to either the smoke of 3 cigarettes per day (commercial Virginia filter cigarettes: 12 mg of tar and 0.9 mg of nicotine), 5 days per week or to room air (controls) for 4 or 7 months, respectively.
When indicated, animals received an oral treatment by gavage with Uridine (0.6 mg/kg) 45 min prior to smoke exposure.
At the end of the respective time period, animals were sacrificed; BAL was performed followed by lung resection. […] Lung volume was measured by water displacement. […]
This Lm value was used to calculate the ISA (which represent the gas exchange surface), necessary for evaluating the degree of emphysema, from the equation 4V/Lm, where V is the postfixation lung volume. For the determination of the Lm for each pair of lungs, 40 histological fields were evaluated both vertically and horizontally.
Statistical significance of differences between samples was calculated using ANOVA, followed by Bonferroni comparison test. […]

[5] = system: BLM-induced pulmonary fibrosis; test: Mouse model of bleomycin (BLM) induced pulmonary fibrosis; assay type: in vivo, male C57/B16 mice
Description: The induction of BLM induced pulmonary fibrosis was performed as previously described (Gasse P, Mary C, Guenon I, Noulin N, Charron S, Schnyder-Candrian S, Schnyder B, Akira S, Quesniaux V F, Lagente V, et al. II-1r1/myd88 signaling and the inflammasome are essential in pulmonary inflammation and fibrosis in mice. J Clin Invest 2007; 117(12):3786-3799). Then, male C57/B16 animals were treated with the uridine p.o. (200 μl 10 mM) or vehicle 14 days after BLM-instillation for 3 days a week. At day 30 animals were examined for the typical features of BLM-induced lung injury. Therefore BALF was collected and differential cell count was analyzed as described above.
as §1
The amount of lung collagen was measured in the lung tissue using the Sircol-assay according to the manufacturer's recommendations (Biocolor, Life-Science, UK).
as §2

[6] = BALF, uridine i.t. 1 mM or 10 mM
[7] = BALF, uridine p.o. 200 μl 10 mM, day 30
[8] = uridine p.o. 200 μl 10 mM, day 30

Question: With `O=c1[nH]c(=S)ccn1[C@@H]1O[C@H](CO)[C@@H](O)[C@H]1O` [4-thiouridine] as the compound, how does the anti-inflammatory effects [1] read?
Answer: Its anti-inflammatory effects is “anti-inflammatory effects similar to those of uridine”.

Question: With `O=c1ccn([C@@H]2O[C@H](CO)[C@@H](O)[C@H]2O)c(=O)[nH]1` [uridine] as the compound, how does the “efficacy in reduction of mitochondrial toxicity” value ([2]; human, HAART) read?
Answer: Its value is “efficacious”.

Question: And the safety ([2]; in vivo)?
Answer: The safety was “safe”.

Question: What about the “level of IFN-γ” value (smoke exposed mice; [6]) of the same compound?
Answer: The value was “dose dependently reduced”.

Question: And the “level of IL-1β” value (smoke exposed mice; [6])?
Answer: Its value is “dose dependently reduced”.

Question: And the “level of IL-6” value (smoke exposed mice; [6])?
Answer: Its value is “dose dependently reduced”.

Question: And the “level of KC” value (smoke exposed mice; [6])?
Answer: Its value is “dose dependently reduced”.

Question: And the “level of MIP-2” value (smoke exposed mice; [6])?
Answer: Its value is “dose dependently reduced”.

Question: What about the number of macrophages (smoke exposed mice; [6]) of the same compound?
Answer: Its number of macrophages is “dose dependently reduced”.

Question: And the number of neutrophils (smoke exposed mice; [6])?
Answer: Its number of neutrophils is “dose dependently reduced”.

Question: What about the “amount of extracellular ATP in BALF” value (smoke exposed mice; uridine i.t. 80 μl 1 mM or 10 mM vs non uridine treated mice (FIG. 1b)) of the same compound?
Answer: Its value is “significantly be reduced in a dose dependent manner”.

Question: And the asthmatic airway inflammation [3]?
Answer: The asthmatic airway inflammation was “suppress”.

Question: And the “internal surface area of the lung” value [4]?
Answer: The value was “higher”.

Question: What about the mean linear intercept [4] of the same compound?
Answer: The mean linear intercept was “significantly lower”.

Question: What about the IL-1 beta [5, 7] of the same compound?
Answer: Its IL-1 beta is “down-regulation”.

Question: And the IL-6 [5, 7]?
Answer: The IL-6 was “down-regulation”.

Question: What about the KC [5, 7] of the same compound?
Answer: The KC was “down-regulation”.

Question: What about the TNFalpha [5, 7] of the same compound?
Answer: Its TNFalpha is “down-regulation”.

Question: What about the BLM-induced pulmonary fibrosis ([5]; uridine p.o 3×/week from day 14, day 30 (FIG. 3)) of the same compound?
Answer: The BLM-induced pulmonary fibrosis was “decreases”.

Question: And the “amount of collagen in the lung” value ([5]; uridine p.o. 200 μl 10 mM 3 days a week from day 14, day 30)?
Answer: The value was “significantly reduce”.

Question: And the TIMP-1 ([5]; uridine p.o. 200 μl 10 mM, after bleomycin instillation (FIG. 3))?
Answer: The TIMP-1 was “reduced to normal levels”.

Question: What about the “lymphocytes in BALF” value [5, 8] of the same compound?
Answer: Its value is “down-regulation”.

Question: And the “macrophages in BALF” value [5, 8]?
Answer: Its value is “down-regulation”.

Question: And the “neutrophils in BALF” value [5, 8]?
Answer: The value was “down-regulation”.
